# Results: patent EP2540163A1, “Nematocide N-cyclopropyl-sulfonylamide derivatives” (Bayer CropScience AG, priority 2011, dated 2013)
# System: Meloidogyne incognita
# Test: not given
# Assay type: in vivo
# Conditions: 336 h, 20 ppm
# Experimental: Meloidogyne incognita - test
# To produce a suitable preparation of active compound, 1 part by weight of active compound is mixed with the stated amount of solvent, and the concentrate is diluted with emulsifier-containing water to the desired concentration.
# Vessels are filled with sand, a solution of the active ingredient, a suspension containing eggs and larvae of Meloidogyne incognita and salad seeds. The salad seeds germinate and the seedlings grow. Galls develop in the roots.
# After 14 days the nematicidal activity is determined on the basis of the percentage of gall formation. 100% means that no galls were found; 0% means that the number of galls found on the roots of the treated plants was equal to that in untreated control plants.
row,SMILES,nematicidal activity determined on the basis of the percentage of gall formation
1,Cc1nc(C(=O)N(C2CC2)S(=O)(=O)c2ccc(Cl)c(C(F)(F)F)c2)cs1 [compound 69],80%
2,O=C(c1cccnc1)N(C1CC1)S(=O)(=O)c1ccc(Cl)c(C(F)(F)F)c1 [compound 638],100%

# System: not listed separately
# Test: logP by HPLC on reversed-phase column (C 18), EEC Directive 79/831 Annex V.A8, Method A (0.1% aqueous phosphoric acid / acetonitrile, 43°C)
# Assay type: physicochemical
# Conditions: c18 reversed-phase hplc; LogP method A: HPLC reversed-phase C 18, 43°C, 0.1% aqueous phosphoric acid / acetonitrile
# Experimental: Calibration was carried out using unbranched alkan-2-ones (having 3 to 16 carbon atoms) with known logP values (determination of the logP values by the retention times using linear interpolation between two successive alkanones).
row,SMILES,chromatographic logP
1,Cc1nc(C(=O)N(C2CC2)S(=O)(=O)c2ccc(Cl)c(C(F)(F)F)c2)cs1 [compound 69],3.63
2,O=C(c1cccnc1)N(C1CC1)S(=O)(=O)c1ccc(Cl)c(C(F)(F)F)c1 [compound 638],3.1
3,COCCn1c(C)c(C(=O)N(C2CC2)S(=O)(=O)c2ccc(Cl)cc2Cl)sc1=O [compound 620],2.01
4,Cc1ncc(C(=O)N(C2CC2)S(=O)(=O)c2cccc(Cl)c2)s1 [compound 60],2.8
5,COCCn1c(C)c(C(=O)N(C2CC2)S(=O)(=O)c2cccc(Cl)c2)sc1=O [compound 609],2.01
6,Cc1n[nH]c(C)c1C(=O)N(C1CC1)S(=O)(=O)c1ccc(C(F)(F)F)cc1 [compound 402],2.58
7,CC1=C(C(=O)N(C2CC2)S(=O)(=O)c2ccccc2Cl)OCCS1 [compound 652],2.78
8,Cc1nn(C)c(F)c1C(=O)N(C1CC1)S(=O)(=O)c1cnc(Cl)c(Br)c1 [compound 447],3.08
9,Cc1c(C(=O)N(C2CC2)S(=O)(=O)c2ccccc2Cl)cnn1-c1ccccc1 [compound 201],2.97
10,CCc1c(C(=O)N(C2CC2)S(=O)(=O)c2cccc(Cl)c2)sc(=O)n1C1CC1 [compound 615],2.01
11,CCOC(=O)c1[nH]c(C)c(C(=O)N(C2CC2)S(=O)(=O)c2cccc(Cl)c2)c1C [compound 29],3.46
12,O=C(c1cccnc1)N(C1CC1)S(=O)(=O)c1cccc(Cl)c1 [compound 642],2.3
13,Cc1nc(C(=O)N(C2CC2)S(=O)(=O)c2ccc(Cl)c(Cl)c2)cs1 [compound 70],3.46
14,Cc1nn(C)c(F)c1C(=O)N(C1CC1)S(=O)(=O)c1ccc(Cl)cc1Cl [compound 186],2.94
15,Cc1occc1C(=O)N(C1CC1)S(=O)(=O)c1cccc(Cl)c1 [compound 3],3.27
16,Cc1occc1C(=O)N(C1CC1)S(=O)(=O)c1ccccc1Cl [compound 4],2.77
